Patent publication US20250268975A1 (priority 2024, published 2025)
*1 amine or outer side, *2 acyl side, *3 side chain or, on linkers, in order; H or OH if unused. Where a SMILES comes first, the peptide text is derived from it. [ ]: non-standard residue; d: D form. X1 = CCCCCCCCCCCCCCN(CC(=O)[*:2])[*:1]; Nrpe = C[C@@H](NCC(=O)O)c1ccccc1; Nlys = NCCCCNCC(=O)O

Tested on: transgenic Zaire Ebola virus (EBOV) of the Mayinga strain, expressing green fluorescent protein (EBOV-GFP)
Assay type: cell-based

CCCCCCCCCCCCCCNCC(=O)N(CCCCN)CC(=O)N(CC(=O)N(CC(=O)N(CCCCN)CC(N)=O)[C@H](C)c1ccccc1)[C@H](C)c1ccccc1 [MXB-24,816, H-Ntetradec-Nlys-Nspe-Nspe-Nlys-NH2] (H-[X1][Nlys][Nrpe][Nrpe][Nlys]-NH2)
antiviral activity against Ebola virus (inhibition of viral titers and GFP-positive Ebola virus replication): showed antiviral activity
